These results are taken from ChEMBL document CHEMBL5046233, “Nitroxoline and its derivatives are potent inhibitors of metallo-β-lactamases” (Eur J Med Chem, 2022).

The test system of test [1] is Bacteria. Kind of test: Inhibition of recombinant VIM-1 (unknown origin) using fluorocillin as substrate at 30 uM incubated for 30 mins by fluorescence based assay.
The test system of test [2] is Escherichia coli. Description: Antimicrobial activity against Escherichia coli T2359 expressing NDM-1 assessed as inhibition of bacterial growth by CLSI protocol based broth microdilution assay. In kind it is functional.
For test [3], the system named is Klebsiella pneumoniae. Description: Antimicrobial activity against Klebsiella pneumoniae clinical isolate T2301 expressing NDM-1 assessed as inhibition of bacterial growth by CLSI protocol based broth microdilution assay. In kind it is functional.
Test [4] concerns Escherichia coli. Kind of test: Antimicrobial activity against Escherichia coli clinical isolate T2228 expressing VIM-1 assessed as inhibition of bacterial growth by CLSI protocol based broth microdilution assay. The format is functional.
The subject of test [5] is Enterobacter cloacae. Kind of test: Potentiation of imipenem-induced antibacterial activity against Enterobacter cloacae T2311 expressing NDM-1 assessed as fold change in imipenem MIC at 32 mg/L by CLSI protocol based broth microdilution assay. The format is functional.
Test [6] has as its system Citrobacter freundii. Kind of test: Potentiation of imipenem-induced antibacterial activity against Citrobacter freundii T2431 expressing KPC-3 assessed as fold change in imipenem MIC at 32 mg/L by CLSI protocol based broth microdilution assay. In kind it is functional.
The test system of test [7] is Klebsiella pneumoniae. Description: Bactericidal activity against Klebsiella pneumoniae T2301 expressing NDM-1 assessed as killing rate at 0.5 X MIC measured after 24 hrs in presence of imipenem by time-kill assay relative to control. The format is functional.
In test [8] the test system is Escherichia coli. Description: Synergistic antibacterial activity against Escherichia coli T2359 expressing NDM-1 assessed as fractional inhibitory concentration index in presence of imipenem by checkerboard assay. The format is functional.
The subject of test [9] is Escherichia coli. Description: Synergistic antibacterial activity against Escherichia coli clinical isolate T2228 expressing VIM-1 assessed as fractional inhibitory concentration index in presence of imipenem by checkerboard assay. The format is functional.
Test [10] has as its system Pseudomonas aeruginosa. Description: Potentiation of imipenem-induced antibacterial activity against Pseudomonas aeruginosa T2217 expressing VIM-2 assessed as imipenem MIC at 32 mg/L by CLSI protocol based broth microdilution assay. The format is functional.
In test [11] the test system is Escherichia coli. Kind of test: Potentiation of imipenem-induced antibacterial activity against Escherichia coli T2433 expressing OXA-48 assessed as imipenem MIC at 32 mg/L by CLSI protocol based broth microdilution assay. The format is functional.

As for `N#CCN(Cc1ccccc1)Cc1cc([N+](=O)[O-])c2cccnc2c1O`, the inhibition in test [1] amounted to 100%. Also, the MIC in [2] was above 0.064 µg/mL; in [3] it was above 0.066 µg/mL; in test [4], above 0.067 µg/mL; in test [10] it was 0.016 µg/mL; in test [11] it was 0.002 µg/mL. Besides, the “fold change (FC)” value was 16 in [5] and 2 in [6]. Moreover, the Activity in test [7] is recorded as above 99.9%. Besides, the “fractional inhibitory concentration index (FICI)” value in test [8] and in [9] was 0.265 in each case.
